Test results taken from US11319283B2, “Substituted cyclobutylbenzene compounds as indoleamine 2,3-dioxygenase (IDO) inhibitors” (MERCK SHARP & DOHME CORP., priority 2017, dated 2022).

These molecules were tested against IDO1 (Homo sapiens, UniProt P14902) (assay: IDO1 Cellular Assay in Hela Cells Stimulated with IFNγ). Conditions: Hela cells stimulated with IFNγ 100 ng/mL, 300 uM L-tryptophan, about 48 hours, fluorescence readout.
Chain of IDO1 (P14902 whole entry): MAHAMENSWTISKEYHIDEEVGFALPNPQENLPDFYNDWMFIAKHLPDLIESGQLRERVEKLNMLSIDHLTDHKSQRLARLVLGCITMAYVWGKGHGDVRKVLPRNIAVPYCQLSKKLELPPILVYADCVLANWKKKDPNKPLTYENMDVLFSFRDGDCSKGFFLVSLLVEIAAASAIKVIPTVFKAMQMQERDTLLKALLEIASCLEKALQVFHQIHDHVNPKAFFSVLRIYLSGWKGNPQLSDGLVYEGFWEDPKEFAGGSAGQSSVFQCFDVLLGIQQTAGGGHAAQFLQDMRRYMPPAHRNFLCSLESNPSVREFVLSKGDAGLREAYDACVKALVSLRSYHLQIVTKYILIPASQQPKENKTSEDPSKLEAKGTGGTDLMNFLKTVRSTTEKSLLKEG
Type: cell-based
Design: endogenous in cells; host or cells: HeLa cells stimulated with IFNγ (100 ng/mL)
Method: IDO1 Cellular Assay in Hela Cells Stimulated with IFNγ
Hela cells were cultured in complete Hela culture medium (90% EMEM, 10% heat-inactivated fetal bovine serum) and expanded to about 1×10^9 cells. The cells were then collected and frozen down at 1×10^7 cells/vial in 1 mL frozen medium (90% complete Hela culture medium, 10% DMSO)
Compounds to be tested were serially diluted in ten 3-fold steps in DMSO starting from 10 mM DMSO stocks in Echo low volume plate(s).
Frozen Hela cells were thawed and transferred into Hela assay medium (99% complete Hela culture medium, 1% Pen/Strep) with 20 mL medium/vial of cells. The cells were spun down at 250 g in a table top centrifuge for 5 min and suspended in same volume of Hela assay medium. The cells were then counted and adjusted to a density of 2×10^5 cells/ml in Hela assay medium. Sterile L-tryptophan were added to the cells with final concentration of 300 uM L-tryptophan. A small aliquot (2 mL/plate) of Hela cells were set aside and were not treated with IFNγ, to serve as the Max-E control.
Hela cells with and without IFNγ were dispensed to the respective wells of 384-well assay plates containing the compounds. The plates were incubated for about 48 hours at a 37° C., 5% CO2 incubator. Afterwards, […] of 0.5 M methyl isonipecotate in dimethyl sulfoxide were added into each well and the plates were sealed and incubated at 37° C. without CO2 overnight. The plates were centrifuged for 1 min at 200×g. The resulting fluorescence was measured in a Spectramax plate reader (Molecular Devices) with a 400 nm excitation filter and a 510 nm emission filter.
Potencies were calculated by linear least squares fit to the four parameter logistic IC50 equation.
With CCCC(=O)NC1(c2ccc(NC(=O)c3cccc(Cl)c3)cc2)CCC1 [Example 1, N-(4-(1-Butyramidocyclobutyl)phenyl)-3-chlorobenzamide] the IC50 was 48 nM. Molecule O=C(Nc1ccc(C2(C(=O)NC3CC(F)(F)C3)CCC2)cc1)c1cccc(Cl)c1 [Example 38, 3-chloro-N-(4-{1-[(3,3-difluorocyclobutyl)carbamoyl]cyclobutyl}phenyl) benzamide] has an IC50 of 31 nM. For O=C(Nc1ccc(C2(C(=O)NC34CC(C3)C4)CCC2)cc1)c1cccc(Cl)c1 [Example 39, N-(4-{1-[(bicyclo[1.1.1]pentan-1-yl)carbamoyl]cyclobutyl}phenyl)-3-chlorobenzamide], the IC50 was 34 nM. CC(NC(=O)C1(c2ccc(NC(=O)c3cccc(Cl)c3)cc2)CCC1)C1CC1 (centres unmarked) [Example 41, 3-chloro-N-(4-{1-[(1-cyclopropylethyl)carbamoyl]cyclobutyl}phenyl) benzamide] was tested, and the IC50 was 101 nM. In the case of CC(NC(=O)C1(c2ccc(NC(=O)c3cccc(Cl)c3)cc2)CCC1)C1CCCO1 (centres unmarked) [Example 43, 3-chloro-N-[4-(1-{[1-(oxolan-2-yl)ethyl]carbamoyl}cyclobutyl)phenyl]benzamide], the IC50 is reported as 660 nM. CC1CC1NC(=O)C1(c2ccc(NC(=O)c3cccc(Cl)c3)cc2)CCC1 (centres unmarked) [Example 46, 3-chloro-N-(4-{1-[(2-methylcyclopropyl)carbamoyl]cyclobutyl}phenyl) benzamide] was tested, and the IC50 was 13 nM. For O=C(Nc1ccc(C2(C(=O)NCCC(F)(F)F)CCC2)cc1)c1cccc(Cl)c1 [Example 47, 3-chloro-N-(4-{1-[(3,3,3-trifluoropropyl)carbamoyl]cyclobutyl}phenyl) benzamide], the IC50 was 26 nM. Work on O=C(Nc1ccc(C2(C(=O)NCC3CC3)CCC2)cc1)c1cccc(Cl)c1 [Example 48, 3-chloro-N-(4-{1-[(cyclopropylmethyl)carbamoyl]cyclobutyl}phenyl)benzamide] yielded an IC50 of 27 nM. Molecule CCNC(=O)C1(c2ccc(NC(=O)c3cccc(Cl)c3)cc2)CCC1 [Example 50] has an IC50 of 151 nM. Molecule CCCNC(=O)C1(c2ccc(NC(=O)c3nnsc3C)cc2)CCC1 [Example 54, 5-Methyl-N-(4-(1-(propylcarbamoyl)cyclobutyl)phenyl)-1,2,3-thiadiazole-4-carboxamide] has an IC50 of 500 nM. CCCNC(=O)C1(c2ccc(NC(=O)c3ccc(CN)cc3)cc2)CCC1 [Example 55, 4-(aminomethyl)-N-{4-[1-(propylcarbamoyl)cyclobutyl]phenyl} benzamide] showed an IC50 of 613 nM. CCCNC(=O)C1(c2ccc(NC(=O)c3cc(C)no3)cc2)CCC1 [Example 56, 3-methyl-N-{4-[1-(propylcarbamoyl)cyclobutyl]phenyl}-1,2-oxazole-5-carboxamide] gave an IC50 of 923 nM. CCCNC(=O)C1(c2ccc(NC(=O)c3coc(CC)n3)cc2)CCC1 [Example 57, 2-ethyl-N-{4-[1-(propylcarbamoyl)cyclobutyl]phenyl}-1,3-oxazole-4-carboxamide] gave an IC50 of 1710 nM. Molecule CCCNC(=O)C1(c2ccc(NC(=O)c3cn4ncccc4n3)cc2)CCC1 [Example 58, N-{4-[1-(propylcarbamoyl)cyclobutyl]phenyl}imidazo[1,2-b]pyridazine-2-carboxamide] has an IC50 of 2010 nM.
